One assay has as its target ROCK2 (Homo sapiens (Human), UniProt O75116). In words: ROCK2 assay (kinase inhibition, FITC peptide substrate, LABCHIP 3000 Reader). The settings on record: 5 μM ATP, 1.5 μM peptide substrate. It counts as biochemical.
Sequence of ROCK2 (O75116 whole entry, species assumed): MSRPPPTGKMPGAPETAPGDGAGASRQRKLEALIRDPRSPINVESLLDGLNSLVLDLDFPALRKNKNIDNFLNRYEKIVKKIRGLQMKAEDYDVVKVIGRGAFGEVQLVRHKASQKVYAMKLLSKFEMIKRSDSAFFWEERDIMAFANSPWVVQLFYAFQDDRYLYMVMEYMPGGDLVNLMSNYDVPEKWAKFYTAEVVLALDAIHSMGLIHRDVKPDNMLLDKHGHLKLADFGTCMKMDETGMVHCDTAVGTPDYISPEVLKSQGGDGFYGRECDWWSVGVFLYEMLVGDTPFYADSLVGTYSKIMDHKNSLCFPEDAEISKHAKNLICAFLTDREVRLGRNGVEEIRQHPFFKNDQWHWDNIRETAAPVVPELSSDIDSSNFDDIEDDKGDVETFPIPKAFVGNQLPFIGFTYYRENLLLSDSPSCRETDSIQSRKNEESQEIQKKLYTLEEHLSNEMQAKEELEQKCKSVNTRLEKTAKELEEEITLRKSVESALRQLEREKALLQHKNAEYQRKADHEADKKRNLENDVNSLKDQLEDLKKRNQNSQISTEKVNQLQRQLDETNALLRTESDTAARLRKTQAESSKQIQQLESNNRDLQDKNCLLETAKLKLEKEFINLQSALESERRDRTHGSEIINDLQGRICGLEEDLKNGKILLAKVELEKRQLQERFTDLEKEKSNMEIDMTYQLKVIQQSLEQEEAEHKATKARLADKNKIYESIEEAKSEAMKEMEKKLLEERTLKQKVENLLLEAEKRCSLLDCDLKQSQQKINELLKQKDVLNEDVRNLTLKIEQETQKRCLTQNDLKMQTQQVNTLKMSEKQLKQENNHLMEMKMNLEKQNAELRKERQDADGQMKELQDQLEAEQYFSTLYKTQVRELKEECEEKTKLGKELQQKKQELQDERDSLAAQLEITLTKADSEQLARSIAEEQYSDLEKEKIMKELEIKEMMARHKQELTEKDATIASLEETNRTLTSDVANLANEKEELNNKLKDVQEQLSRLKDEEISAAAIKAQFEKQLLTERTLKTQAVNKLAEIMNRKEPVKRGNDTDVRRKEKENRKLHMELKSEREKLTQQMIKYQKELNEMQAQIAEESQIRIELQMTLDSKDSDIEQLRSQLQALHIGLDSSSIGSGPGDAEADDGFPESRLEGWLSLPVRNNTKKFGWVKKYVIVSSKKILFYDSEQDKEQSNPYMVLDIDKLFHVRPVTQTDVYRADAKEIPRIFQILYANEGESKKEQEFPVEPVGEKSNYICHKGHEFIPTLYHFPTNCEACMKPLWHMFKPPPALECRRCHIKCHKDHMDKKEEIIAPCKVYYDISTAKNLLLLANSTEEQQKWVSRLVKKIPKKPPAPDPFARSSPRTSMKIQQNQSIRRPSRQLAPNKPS
`[H][C@]1(Oc2c(C(N)=O)sc3ccccc23)C[C@]2(C[C@@H](NC(=O)c3cnn4c(C5CC5)c(OCC(C)(C)O)ccc34)C2)C1` (stereo partly drawn) [Example 2, N-((aR)-6-((2-Carbamoylbenzo[b]thiophen-3-yl)oxy)spiro[3.3]heptan-2-yl)-7-cyclopropyl-6-(2-hydroxy-2-methylpropoxy)pyrazolo[1,5-a]pyridine-3-carboxamide] had an IC50 of 20 nM.

Compound `CCn1cc(C(N)=O)c(O[C@H]2CC3(C[C@H](NC(=O)c4cnn5c(C6CC6)c(OCC(C)(C)O)ccc45)C3)C2)n1` (stereo partly drawn) [Example 19, 3-({(aR)-6-[7-cyclopropyl-6-(2-hydroxy-2-methylpropoxy)pyra-zolo[1,5-a]pyridine-3-amido]spiro[3.3]hep-tan-2-yl}oxy)-1-ethyl-1H-pyrazole-4-carboxamide] registered an IC50 of 10.5 nM. On to “2-cyclopropyl-4- {[(aR)-6-{4-[(1R)- 1-hydroxyethyl]- 2,5- dioxoimidazolidin- 1- yl}spiro[3.3]heptan- 2-yl]oxy}-1,3- thiazole-5- carboxamide [Example 109]”, for which the IC50 amounted to 330 nM. `NC(=O)c1c(O[C@H]2CC3(C[C@H](NC(=O)c4cnn5cc(OCC(F)F)ccc45)C3)C2)nn2ccccc12` (stereo partly drawn) [Example 122, 2-{[(4s)-6-[6-(2,2-difluoroethoxy)pyrazolo[1,5-a]pyridine-3-amido]spiro[3.3]heptan-2-yl]oxy}pyrazolo[1,5-a]pyridine-3-carboxamide] yielded an IC50 of 117 nM.

The compound `Cc1sc2cc(C(N)=O)c(O[C@H]3C[C@@]4(C[C@H](NC(=O)c5nnc(NCC(C)C)s5)C4)C3)nc2c1C` (stereo partly drawn) [Example 162, 5-[(2-methylpropyl)amino]-N-[(4s)-6-({6-carbamoyl-2,3-dimethylthieno[3,2-b]pyridin-5-yl}oxy)spiro[3.3]heptan-2-yl]-1,3,4-thiadiazole-2-carboxamide] came in with an IC50 of 162 nM. `CC(C)(O)COc1ccc2c(C(=O)N[C@H]3C[C@]4(C3)C[C@H](Oc3c(C(N)=O)cnn3CCCN)C4)cnn2c1C1CC1` (stereo partly drawn) [Example 28, 1-(3-aminopropyl)-5-({(aR)-6-[7-cyclopropyl-6-(2-hydroxy-2-methylpropoxy)pyra-zolo[1,5-a]pyridine-3-amido]spiro[3.3]hep-tan-2-yl}oxy)-1H-pyrazole-4-carboxamide] yielded an IC50 of 551 nM. Compound `NC(=O)c1sc(C2CC2)nc1O[C@H]1C[C@@]2(C[C@H](NC(=O)c3cnn4cc(OCC(F)(F)F)ccc34)C2)C1` (stereo partly drawn) [Example 62, 2-cyclopropyl-4-{[(aR)-6-[6-(2,2,2-trifluoroethoxy)pyra-zolo[1,5-a]pyridine-3-amido]spiro[3.3]hep-tan-2-yl]oxy}-1,3-thiazole-5-carboxamide] had an IC50 of 11.6 nM.

Compound `Cc1ccn2nc(O[C@H]3CC4(C[C@H](NC(=O)c5nn(C(F)F)c6cc(OCC(C)(C)O)ccc56)C4)C3)c(C(N)=O)c2c1` (stereo partly drawn) [Example 132, 1-(difluoromethyl)-6-(2-hydroxy-2-methylpropoxy)-N-[(4s)-6-({3-carbamoyl-5-methylpyrazolo[1,5-a]pyridin-2-yl}oxy)spiro[3.3]heptan-2-yl]-1H-indazole-3-carboxamide] returned an IC50 of 223 nM.

`COCCn1cc(C(N)=O)c(O[C@H]2CC3(C[C@H](NC(=O)c4cnn5c(C6CC6)c(OCC(C)(C)O)ccc45)C3)C2)n1` (stereo partly drawn) [Example 23, 3-({(aR)-6-[7-cyclopropyl-6-(2-hydroxy-2-methylpropoxy)pyra-zolo[1,5-a]pyridine-3-amido]spiro[3.3]hep-tan-2-yl}oxy)-1-(2-methoxyethyl)-1H-pyrazole-4-carboxamide] came in with an IC50 of 77.7 nM.

In another assay the test system is ROCK.
Assay: not given
To be noted: rat, in vivo; cited from earlier work.
Take `O=S(=O)(c1cccc2cnccc12)N1CCCNCC1` [fasudil]: the “infarct size and neurologic deficit” value was “reduce both the infarct size and neurologic deficit”.

In a further assay the test system is ROCK.
Assay: not given
To be noted: long term treatment; cited from earlier work.
Consider `O=S(=O)(c1cccc2cnccc12)N1CCCNCC1` [fasudil], for which the coronary constrictive remodeling entry is given as “promote a regression of coronary constrictive remodeling” and the coronary stenosis entry is “progressively reduce coronary stenosis”.

The values are drawn from US11673886B2, “5-membered and bicyclic heterocyclic amides as inhibitors of ROCK” (BRISTOL-MYERS SQUIBB COMPANY, priority 2017, dated 2023).
